IC50 data for 25 compounds are collected here from the Kinase Knowledgebase extract (Sharma et al. 2016).

Molecules are shown by their SMILES. pIC50: −log10 of the molar value.

In one assay the target is MAPK14 (human) (UniProt Q16539). Briefly: Inhibition of LPS Induced TNF-alpha Production in Human PBMC.
Chain of MAPK14 (human) (Q16539 whole entry, looked up): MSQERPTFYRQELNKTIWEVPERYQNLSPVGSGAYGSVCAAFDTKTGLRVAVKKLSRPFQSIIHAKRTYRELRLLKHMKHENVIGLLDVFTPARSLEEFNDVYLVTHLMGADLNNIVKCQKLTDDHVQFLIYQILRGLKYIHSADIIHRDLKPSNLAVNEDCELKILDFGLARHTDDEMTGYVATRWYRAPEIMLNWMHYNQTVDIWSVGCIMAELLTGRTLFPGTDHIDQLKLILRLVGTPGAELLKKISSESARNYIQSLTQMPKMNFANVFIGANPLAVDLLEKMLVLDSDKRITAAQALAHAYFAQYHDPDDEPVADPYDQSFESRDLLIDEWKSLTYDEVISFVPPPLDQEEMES
One may read the pIC50 as −log10 of the IC50, conventionally taken in molar units. In turn, `C[C@H](Nc1nccc(-c2c(-c3ccc(F)cc3)c(=O)n3n2CCC3)n1)C(C)(C)O` had a negative logarithm of the IC50 (pIC50) of 8.10.

`COC[C@H](C)Nc1nccc(-c2c(-c3ccc(F)cc3)c(=O)n3n2CCC3)n1` had a negative logarithm of the IC50 (pIC50) of 7.80.

Compound `C[C@H](Nc1nccc(-c2c(-c3ccc(F)cc3)c(=O)n3n2CCC3)n1)c1ccccc1` had a negative logarithm of the IC50 (pIC50) of 9.40.

For the next assay the target is unchanged. Briefly: Inhibition of LPS Induced IL-1Beta Production in Huamn PBMC.
`C[C@H](Nc1nccc(-c2c(-c3ccc(F)cc3)c(=O)n3n2CCC3)n1)C(C)(C)O` showed a negative-log IC50 (pIC50) of 7.38.

`COC[C@H](C)Nc1nccc(-c2c(-c3ccc(F)cc3)c(=O)n3n2CCC3)n1` showed a negative-log IC50 (pIC50) of 7.41.

In the case of `C[C@H](Nc1nccc(-c2c(-c3ccc(F)cc3)c(=O)n3n2CCC3)n1)c1ccccc1`, the pIC50 is 9.10.

The target is the same in another assay. Briefly: Inhibition of LPS Induced TNF-alpha Production in THP1 Cells.
The compound `O=c1c(-c2ccc(F)cc2)c(-c2ccnc(Nc3ccccc3)n2)n2n1CCC2` had a negative-log IC50 (pIC50) of 7.10.

Compound `O=c1c(-c2ccc(F)cc2)c(-c2ccnc(NC3CC3)n2)n2n1CCC2` had a pIC50 of 7.11.

Compound `CC[C@H](C)Nc1nccc(-c2c(-c3ccc(F)cc3)c(=O)n3n2CCCC3)n1` had a negative-log IC50 (pIC50) of 6.97.

For the compound `COC(=O)[C@H](Nc1nccc(-c2c(-c3ccc(F)cc3)c(=O)n3n2CCC3)n1)c1ccccc1`, the pIC50 was 6.83.

`O=c1c(-c2ccc(F)cc2)c(-c2ccnc(Nc3c(Cl)ncnc3Cl)n2)n2n1CCC2` gave a pIC50 of 6.32.

In turn, `O=c1c(-c2ccc(F)cc2)c(-c2ccnc(Nc3c(F)cccc3F)n2)n2n1CCC2` had a pIC50 of 8.22.

`Cc1ccc([C@H](C)Nc2nccc(-c3c(-c4ccc(F)cc4)c(=O)n4n3CCC4)n2)cc1` showed a negative-log IC50 (pIC50) of 7.43.

For `COCCCNc1nccc(-c2c(-c3ccc(F)cc3)c(=O)n3n2CCC3)n1`, the negative-log IC50 (pIC50) was 6.52.

Take `COC[C@H](C)Nc1nccc(-c2c(-c3ccc(F)cc3)c(=O)n3n2CCCC3)n1`: the negative logarithm of the IC50 (pIC50) was 6.27.

`O=c1c(-c2ccc(F)cc2)c(-c2ccnc(NCC3CC3)n2)n2n1CCC2`: the negative-log IC50 (pIC50) is 7.03.

For `C[C@@H](Nc1nccc(-c2c(-c3ccc(F)cc3)c(=O)n3n2CCC3)n1)c1ccccc1`, the pIC50 is 7.57.

In the case of `C[C@H](Nc1nccc(-c2c(-c3ccc(F)cc3)c(=O)n3n2CCCC3)n1)c1ccccc1`, the negative-log IC50 (pIC50) is 7.54.

Compound `CC[C@H](C)Nc1nccc(-c2c(-c3ccc(F)cc3)c(=O)n3n2CCC3)n1` gave a pIC50 of 8.70.

Consider `COC[C@H](C)Nc1nccc(-c2c(-c3ccc(F)cc3)c(=O)n3n2CCC3)n1`, for which the negative-log IC50 (pIC50) is 7.30.

`O=c1c(-c2ccc(F)cc2)c(-c2ccnc(NCc3ccccn3)n2)n2n1CCC2`: the pIC50 is 6.58.

Compound `O=c1c(-c2ccc(F)cc2)c(-c2ccnc(Nc3c(Cl)cccc3Cl)n2)n2n1CCC2` showed a pIC50 of 8.40.

As to `C[C@H](Nc1nccc(-c2c(-c3ccc(F)cc3)c(=O)n3n2CCC3)n1)c1ccccc1`, the pIC50 was 8.52.

Take `O=c1c(-c2ccc(F)cc2)c(-c2ccnc(NCc3cccnc3)n2)n2n1CCC2`: the pIC50 was 6.92.

For `O=c1c(-c2ccc(F)cc2)c(-c2ccnc(Nc3ccccn3)n2)n2n1CCC2`, the pIC50 was 6.22.

Take `CC(C)(C)Nc1nccc(-c2c(-c3ccc(F)cc3)c(=O)n3n2CCC3)n1`: the negative-log IC50 (pIC50) is 7.62.

For the compound `C[C@H](Nc1nccc(-c2c(-c3ccc(F)cc3)c(=O)n3n2CCCC3)n1)C(C)(C)O`, the pIC50 was 6.59.

On to `C=CCNc1nccc(-c2c(-c3ccc(F)cc3)c(=O)n3n2CCC3)n1`, for which the pIC50 was 7.52.

In the case of `C[C@H](Nc1nccc(-c2c(-c3ccc(F)cc3)c(=O)n3n2CCC3)n1)C1CCCCC1`, the pIC50 is 7.42.

Take `O=c1c(-c2ccc(F)cc2)c(-c2ccnc(NCc3ccccc3)n2)n2n1CCC2`: the pIC50 was 7.13.
